Drawing on ChEMBL document CHEMBL1201862, “PubChem BioAssay data set” (2004), this text covers AC50, IC50 and EC50 for seven compounds.

By AC50 is commonly meant the concentration giving half of the maximal activity seen. A word on the IC50: it is the concentration needed to halve the response being measured. Usually EC50 stands for the concentration that produces a half-maximal response.

Activity calls are given as the source filed them.

Test [1] in a line: general mammalian cell viability loss – inhibitor set, cherry-pick, set 2, cytotoxicity control for miR-122 modulator project, dose response (AID 720697). The class given is functional, cell-based.
The target of test [2] is Tyrosyl-DNA phosphodiesterase 2 (Homo sapiens, UniProt O95551). Kind of test: potency against TDP2 phosphodiesterase activity – biochemical, epi absorbance, IC50, dose response (AID 743297).
Another test has as its target T1, Protein RecA (Mycobacterium tuberculosis, UniProt P9WHJ3).
T1 sequence (P9WHJ3 whole entry): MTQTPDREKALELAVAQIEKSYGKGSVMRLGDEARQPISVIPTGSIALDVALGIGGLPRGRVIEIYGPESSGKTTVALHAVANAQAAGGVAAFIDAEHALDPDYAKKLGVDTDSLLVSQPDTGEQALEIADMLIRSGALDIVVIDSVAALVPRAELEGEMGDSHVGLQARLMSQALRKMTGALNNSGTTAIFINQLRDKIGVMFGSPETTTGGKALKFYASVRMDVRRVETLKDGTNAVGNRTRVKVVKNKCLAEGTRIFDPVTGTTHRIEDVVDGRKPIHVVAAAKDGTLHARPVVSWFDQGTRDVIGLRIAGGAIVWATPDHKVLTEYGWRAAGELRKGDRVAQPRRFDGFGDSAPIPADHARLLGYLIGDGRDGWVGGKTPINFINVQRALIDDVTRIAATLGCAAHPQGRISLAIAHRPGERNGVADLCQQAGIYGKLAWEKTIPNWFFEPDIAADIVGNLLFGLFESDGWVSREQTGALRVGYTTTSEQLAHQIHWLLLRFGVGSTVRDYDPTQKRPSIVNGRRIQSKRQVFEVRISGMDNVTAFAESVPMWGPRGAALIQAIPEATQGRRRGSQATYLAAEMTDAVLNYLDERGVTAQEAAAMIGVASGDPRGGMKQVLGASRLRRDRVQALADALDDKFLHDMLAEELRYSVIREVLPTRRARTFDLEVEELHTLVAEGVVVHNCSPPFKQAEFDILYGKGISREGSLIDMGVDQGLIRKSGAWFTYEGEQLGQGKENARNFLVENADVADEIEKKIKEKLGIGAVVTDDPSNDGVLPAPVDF
Kind of test: Fluorescence Cell-Free Homogeneous Dose Retest to Identify Inhibitors of RecA-Intein Splicing Activity. [Related pubchem assays (depositor defined):AID2097, AID2223, AID489010, AID492950]. It is filed as functional.

Test [3] addresses T2, Replicative DNA helicase DnaB (Mycobacterium tuberculosis, UniProt P9WMR3).
T2 sequence (P9WMR3 whole entry): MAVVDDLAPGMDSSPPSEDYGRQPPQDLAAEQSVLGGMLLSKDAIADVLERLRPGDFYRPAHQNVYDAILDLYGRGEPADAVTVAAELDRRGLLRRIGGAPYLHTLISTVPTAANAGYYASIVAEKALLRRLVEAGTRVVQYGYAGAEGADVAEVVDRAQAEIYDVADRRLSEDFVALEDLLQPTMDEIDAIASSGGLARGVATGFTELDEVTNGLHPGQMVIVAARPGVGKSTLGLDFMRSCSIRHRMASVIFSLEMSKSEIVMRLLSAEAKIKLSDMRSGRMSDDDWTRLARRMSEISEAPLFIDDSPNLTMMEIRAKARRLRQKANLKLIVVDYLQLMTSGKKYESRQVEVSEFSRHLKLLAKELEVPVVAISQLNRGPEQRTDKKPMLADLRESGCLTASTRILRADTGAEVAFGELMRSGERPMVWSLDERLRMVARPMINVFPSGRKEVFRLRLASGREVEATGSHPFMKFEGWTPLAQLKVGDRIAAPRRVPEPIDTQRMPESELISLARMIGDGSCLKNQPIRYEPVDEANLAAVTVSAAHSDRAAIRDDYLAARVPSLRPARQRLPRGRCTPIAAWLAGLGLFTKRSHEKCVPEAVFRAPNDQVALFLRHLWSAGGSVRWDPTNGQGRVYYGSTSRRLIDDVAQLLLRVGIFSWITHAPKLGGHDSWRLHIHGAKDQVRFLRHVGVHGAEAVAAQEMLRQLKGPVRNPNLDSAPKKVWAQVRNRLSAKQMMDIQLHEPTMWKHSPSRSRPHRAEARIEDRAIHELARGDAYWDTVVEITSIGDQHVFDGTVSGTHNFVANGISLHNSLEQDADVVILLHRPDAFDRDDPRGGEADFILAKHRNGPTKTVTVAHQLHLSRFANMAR
Kind of test: DnaB intein splicing inhibitors, dose response, biochemical, cell-free fluorescence (AID 449749). It is filed as functional.

The target in a further test is Genome polyprotein (dengue virus type 2, UniProt P29990). Kind of test: flavivirus cap methylation enzyme inhibition – biochemical, confirmation dose response, primary screen (AID 588689). The class given is functional.
The target of a further test is Albumin (Bos taurus, UniProt P02769). Kind of test: Counterscreen for inhibitors of T-cell receptor (TCR)-CD3 interaction: Fluorescence-based biochemical high throughput dose response assay to identify inhibitors of T-cell receptor (TCR)-CD3 interaction using a TAMRA-labeled BSA probe. The class given is functional. A general note: A counterscreen serves to expose hits that act by an unwanted route or on another target.

The nature of test [4]: HGIII-sPLA2 enzyme inhibition potency – biochemical, QFRET, IC50, dose response (AID 743457).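 Also: green fluorescence rise as the enzyme cleaves BODIPY PC-A2 in liposomes.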

Sequence of Tyrosyl-DNA phosphodiesterase 2 (O95551 whole entry): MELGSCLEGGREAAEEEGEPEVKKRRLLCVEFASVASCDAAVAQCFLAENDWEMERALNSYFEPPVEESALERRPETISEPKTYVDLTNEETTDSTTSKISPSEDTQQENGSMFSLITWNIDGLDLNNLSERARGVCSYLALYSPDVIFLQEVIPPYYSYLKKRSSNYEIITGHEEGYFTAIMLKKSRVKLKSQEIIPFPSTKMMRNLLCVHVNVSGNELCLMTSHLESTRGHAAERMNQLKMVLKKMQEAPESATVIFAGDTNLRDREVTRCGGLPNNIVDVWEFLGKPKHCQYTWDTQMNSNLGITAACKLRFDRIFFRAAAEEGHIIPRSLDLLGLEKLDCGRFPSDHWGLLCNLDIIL
Sequence of Albumin (P02769 whole entry): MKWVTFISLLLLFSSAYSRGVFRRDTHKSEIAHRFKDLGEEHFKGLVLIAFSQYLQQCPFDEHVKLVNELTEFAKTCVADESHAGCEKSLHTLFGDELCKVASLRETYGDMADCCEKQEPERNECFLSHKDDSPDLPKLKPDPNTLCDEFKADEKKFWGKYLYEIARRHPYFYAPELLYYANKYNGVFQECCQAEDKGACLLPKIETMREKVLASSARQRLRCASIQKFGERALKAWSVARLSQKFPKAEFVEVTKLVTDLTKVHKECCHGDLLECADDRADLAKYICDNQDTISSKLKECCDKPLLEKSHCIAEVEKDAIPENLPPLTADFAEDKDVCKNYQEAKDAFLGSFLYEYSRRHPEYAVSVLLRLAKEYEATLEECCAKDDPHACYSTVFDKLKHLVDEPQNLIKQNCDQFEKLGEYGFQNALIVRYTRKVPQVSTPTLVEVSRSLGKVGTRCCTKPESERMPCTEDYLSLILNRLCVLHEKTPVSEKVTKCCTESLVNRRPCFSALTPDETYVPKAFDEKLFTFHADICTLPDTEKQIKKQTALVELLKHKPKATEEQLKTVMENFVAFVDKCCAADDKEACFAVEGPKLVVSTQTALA
Sequence of Genome polyprotein (P29990 2492-3391 limits assumed): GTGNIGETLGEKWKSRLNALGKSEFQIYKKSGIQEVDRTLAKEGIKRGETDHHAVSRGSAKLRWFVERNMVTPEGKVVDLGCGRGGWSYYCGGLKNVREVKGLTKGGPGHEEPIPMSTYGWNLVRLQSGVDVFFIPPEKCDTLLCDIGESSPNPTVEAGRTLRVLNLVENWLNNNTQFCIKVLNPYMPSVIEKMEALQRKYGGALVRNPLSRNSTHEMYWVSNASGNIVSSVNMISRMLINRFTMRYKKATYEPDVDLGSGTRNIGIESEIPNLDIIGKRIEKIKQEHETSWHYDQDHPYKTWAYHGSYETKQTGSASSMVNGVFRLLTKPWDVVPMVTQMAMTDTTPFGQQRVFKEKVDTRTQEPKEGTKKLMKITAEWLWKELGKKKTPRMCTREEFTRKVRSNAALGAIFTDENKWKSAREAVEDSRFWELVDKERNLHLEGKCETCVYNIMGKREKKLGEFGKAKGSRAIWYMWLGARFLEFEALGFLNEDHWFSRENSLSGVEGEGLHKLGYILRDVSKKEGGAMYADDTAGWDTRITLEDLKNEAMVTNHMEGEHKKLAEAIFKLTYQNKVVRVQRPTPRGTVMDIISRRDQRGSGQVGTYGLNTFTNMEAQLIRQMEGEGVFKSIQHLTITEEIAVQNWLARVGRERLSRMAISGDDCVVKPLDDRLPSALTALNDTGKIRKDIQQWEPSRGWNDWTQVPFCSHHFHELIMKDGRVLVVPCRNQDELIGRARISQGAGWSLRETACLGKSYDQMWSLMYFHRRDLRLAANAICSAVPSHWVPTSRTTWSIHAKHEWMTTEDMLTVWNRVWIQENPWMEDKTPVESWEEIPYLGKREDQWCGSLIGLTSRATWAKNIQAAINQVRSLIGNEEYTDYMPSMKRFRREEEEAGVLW

For the compound `Cc1ccc(C2CC(C(F)(F)F)n3nc(C(=O)NCc4ccco4)cc3N2)cc1` (stereo not given), the AC50 in test [1] is 1.94 µM (active).

Turning to `CCCCn1c(NS(=O)(=O)c2ccc(C)cc2)c(C(=O)OCC)c2nc3ccccc3nc21`, the IC50 in test [2] is > 128 µM (inactive).

Turning to `COc1ccc(C(c2c(C)[nH]n(-c3ccccc3)c2=O)c2c(C)[nH]n(-c3ccccc3)c2=O)cc1OC`, the results for the IC50 (in test [2]; at Genome polyprotein) were 95.2 µM (inactive) and 35.9 µM (active), respectively. At Protein RecA, the EC50 is 0.688 µM (active). In addition, the AC50 in test [3] was 1.22 µM (active).

With `C/N=C(\S)NNC(=O)c1cccn(Cc2cccc(Cl)c2)c1=O`, the IC50 at Albumin was > 94.1 µM (inactive).

For `O=C(NNC(=S)Nc1ccc(Cl)cc1)c1ccccc1`, the IC50 in test [4] is > 122 µM (inactive).

Take `Cc1c(C(=O)NNC(=O)c2ccccc2O)oc2ccccc12`: the IC50 on Albumin was > 94 µM (inactive).

Consider `COc1ccc(CNC(=O)NCCc2c[nH]c3ccccc23)cc1`, for which the half-maximal activity concentration (AC50) in test [1] was 1.87 µM (active).
